Test results published in patent US20240043427A1 (Gilead Sciences, Inc., priority 2020, published 2024).

Target: CD73 (Homo sapiens (Human), UniProt P21589)
Type: biochemical
Details: 1 mM NaH2PO4 in enzyme buffer, CD73 0.3 nM, AMP 15 uM

Sequence of CD73 (P21589 27-574): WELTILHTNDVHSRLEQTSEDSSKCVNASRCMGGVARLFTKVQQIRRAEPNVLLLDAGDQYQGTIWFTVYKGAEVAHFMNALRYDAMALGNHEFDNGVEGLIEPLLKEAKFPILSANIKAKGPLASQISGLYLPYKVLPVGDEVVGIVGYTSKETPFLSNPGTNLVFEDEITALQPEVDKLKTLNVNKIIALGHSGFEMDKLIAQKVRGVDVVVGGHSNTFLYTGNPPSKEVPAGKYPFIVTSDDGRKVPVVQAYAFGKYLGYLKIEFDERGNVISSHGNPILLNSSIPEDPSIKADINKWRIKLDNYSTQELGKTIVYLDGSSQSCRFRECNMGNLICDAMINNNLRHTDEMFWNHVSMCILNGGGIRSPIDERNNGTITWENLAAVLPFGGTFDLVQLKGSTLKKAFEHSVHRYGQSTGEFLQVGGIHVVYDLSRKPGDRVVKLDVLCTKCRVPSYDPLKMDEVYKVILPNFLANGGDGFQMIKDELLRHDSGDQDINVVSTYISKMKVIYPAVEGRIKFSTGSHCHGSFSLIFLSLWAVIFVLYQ

IC50 [nM] | Structure (SMILES)
0.89 | O=c1[nH]cc(-c2cc([C@H]3C[C@@H]3c3ccc4c(F)nn(CC(F)(F)F)c4c3)c3nccn3n2)c(=O)[nH]1 (racemic) [Example 117, 5-(8-((1S,2S)-2-(3-fluoro-1-(2,2,2-trifluoroethyl)-1H-indazol-6-yl)cyclopropyl)imidazo[1,2-b]pyridazin-6-yl)pyrimidine-2,4(1H,3H)-dione]
0.79 | O=c1[nH]cc(-c2cc([C@H]3C[C@@H]3c3ccc4cnn(CC5CC5(F)F)c4c3)c3nccn3n2)c(=O)[nH]1 (mixture of isomers) [Example 118, 5-(8-((1S,2S)-2-(1-((2,2-difluorocyclopropyl)methyl)-1H-indazol-6-yl)cyclopropyl)imidazo[1,2-b]pyridazin-6-yl)pyrimidine-2,4(1H,3H)-dione]
1.13 | O=c1[nH]cc(-c2cc([C@H]3C[C@@H]3c3cc4c(ccn4CC(F)(F)F)cn3)c3nccn3n2)c(=O)[nH]1 (racemic) [Example 127, 5-(8-((1S,2S)-2-(1-(2,2,2-trifluoroethyl)-1H-pyrrolo[3,2-c]pyridin-6-yl)cyclopropyl)imidazo[1,2-b]pyridazin-6-yl)pyrimidine-2,4(1H,3H)-dione]
1.84 | O=c1[nH]cc(-c2cc([C@H]3C[C@@H]3c3ccc4c(C5CC5)nn(CC(F)(F)F)c4c3)c3nccn3n2)c(=O)[nH]1 (racemic) [Example 128, 5-(8-((1S,2S)-2-(3-cyclopropyl-1-(2,2,2-trifluoroethyl)-1H-indazol-6-yl)cyclopropyl)imidazo[1,2-b]pyridazin-6-yl)pyrimidine-2,4(1H,3H)-dione]
1.01 | O=c1[nH]cc(-c2cc([C@H]3C[C@@H]3c3ccc4cnn(CC5CC5)c4c3)c3nccn3n2)c(=O)[nH]1 (racemic) [Example 130, 5-(8-((1S,2S)-2-(1-(cyclopropylmethyl)-1H-indazol-6-yl)cyclopropyl)imidazo[1,2-b]pyridazin-6-yl)pyrimidine-2,4(1H,3H)-dione]
5.69 | O=c1[nH]cc(-c2cc([C@H]3C[C@@H]3c3ccc4ncsc4c3)c3nc(C4CC4)cn3n2)c(=O)[nH]1 (racemic) [Example 143, 5-(8-((1S,2S)-2-(benzo[d]thiazol-6-yl)cyclopropyl)-2-cyclopropylimidazo[1,2-b]pyridazin-6-yl)pyrimidine-2,4(1H,3H)-dione]
1.36 | N#Cc1ccc([C@H]2C[C@@H]2c2cc(-c3c[nH]c(=O)[nH]c3=O)nn3c(F)cnc23)nc1 (racemic) [Example 151, 6-((1S,2S)-2-(6-(2,4-dioxo-1,2,3,4-tetrahydropyrimidin-5-yl)-3-fluoroimidazo[1,2-b]pyridazin-8-yl)cyclopropyl)nicotinonitrile]
1.56 | O=c1[nH]cc(-c2cc([C@H]3C[C@@H]3c3ccc4cccnc4c3)c3nccn3n2)c(=O)[nH]1 (racemic) [Example 154, 5-(8-((1S,2S)-2-(quinolin-7-yl)cyclopropyl)imidazo[1,2-b]pyridazin-6-yl)pyrimidine-2,4(1H,3H)-dione]
2.04 | N#Cc1ccc([C@H]2C[C@@H]2c2cc(-c3c[nH]c(=O)[nH]c3=O)nn3ccnc23)nc1 (racemic) [Example 155, 6-((1S,2S)-2-(6-(2,4-dioxo-1,2,3,4-tetrahydropyrimidin-5-yl)imidazo[1,2-b]pyridazin-8-yl)cyclopropyl)nicotinonitrile]
0.95 | O=c1[nH]cc(-c2cc([C@H]3C[C@@H]3c3ccc4cnccc4c3)c3nccn3n2)c(=O)[nH]1 (racemic) [Example 156, 5-(8-((1S,2S)-2-(isoquinolin-6-yl)cyclopropyl)imidazo[1,2-b]pyridazin-6-yl)pyrimidine-2,4(1H,3H)-dione]
1.06 | O=c1[nH]cc(-c2cc([C@H]3C[C@@H]3c3ccc4ncccc4c3)c3nccn3n2)c(=O)[nH]1 (racemic) [Example 157, 5-(8-((1S,2S)-2-(quinolin-6-yl)cyclopropyl)imidazo[1,2-b]pyridazin-6-yl)pyrimidine-2,4(1H,3H)-dione]
15.4 | O=c1[nH]cc(-c2cc([C@H]3C[C@@H]3c3ccnc(C(F)(F)F)c3)c3nccn3n2)c(=O)[nH]1 (racemic) [Example 160, 5-(8-((1S,2S)-2-(2-(trifluoromethyl)pyridin-4-yl)cyclopropyl)imidazo[1,2-b]pyridazin-6-yl)pyrimidine-2,4(1H,3H)-dione]
4.48 | O=c1[nH]cc(-c2cc([C@H]3C[C@@H]3c3ccncc3F)c3nccn3n2)c(=O)[nH]1 (racemic) [Example 161, 5-(8-((1S,2S)-2-(3-fluoropyridin-4-yl)cyclopropyl)imidazo[1,2-b]pyridazin-6-yl)pyrimidine-2,4(1H,3H)-dione]
2.13 | O=c1[nH]cc(-c2cc([C@H]3C[C@@H]3c3cnc4ccccc4c3)c3nccn3n2)c(=O)[nH]1 (racemic) [Example 163, 5-(8-((1S,2S)-2-(quinolin-3-yl)cyclopropyl)imidazo[1,2-b]pyridazin-6-yl)pyrimidine-2,4(1H,3H)-dione]
3.58 | O=c1[nH]cc(-c2cc([C@H]3C[C@@H]3c3cncc(F)c3)c3nccn3n2)c(=O)[nH]1 (racemic) [Example 164, 5-(8-((1S,2S)-2-(5-fluoropyridin-3-yl)cyclopropyl)imidazo[1,2-b]pyridazin-6-yl)pyrimidine-2,4(1H,3H)-dione]
5.06 | O=c1[nH]cc(-c2cc([C@H]3C[C@@H]3c3ccc(C(F)(F)F)cc3F)c3nccn3n2)c(=O)[nH]1 (racemic) [Example 165, 5-(8-((1S,2S)-2-(2-fluoro-4-(trifluoromethyl)phenyl)cyclopropyl)imidazo[1,2-b]pyridazin-6-yl)pyrimidine-2,4(1H,3H)-dione]
43 | O=c1[nH]cc(-c2cc([C@H]3C[C@@H]3c3cccc4ccncc34)c3nccn3n2)c(=O)[nH]1 (racemic) [Example 166, 5-(8-((1S,2S)-2-(isoquinolin-8-yl)cyclopropyl)imidazo[1,2-b]pyridazin-6-yl)pyrimidine-2,4(1H,3H)-dione]
33 | O=c1[nH]cc(-c2cc([C@H]3C[C@@H]3c3ccnc4ccccc34)c3nccn3n2)c(=O)[nH]1 (racemic) [Example 167, 5-(8-((1S,2S)-2-(quinolin-4-yl)cyclopropyl)imidazo[1,2-b]pyridazin-6-yl)pyrimidine-2,4(1H,3H)-dione]
72.5 | O=c1[nH]cc(-c2cc([C@H]3C[C@@H]3c3cccc4cnccc34)c3nccn3n2)c(=O)[nH]1 (racemic) [Example 168, 5-(8-((1S,2S)-2-(isoquinolin-5-yl)cyclopropyl)imidazo[1,2-b]pyridazin-6-yl)pyrimidine-2,4(1H,3H)-dione]
13.9 | CCOC(=O)c1cn2nc(-c3c[nH]c(=O)[nH]c3=O)cc([C@H]3C[C@@H]3c3ccc(F)cc3)c2n1 (racemic) [Example 172, ethyl 6-(2,4-dioxo-1,2,3,4-tetrahydropyrimidin-5-yl)-8-((1S,2S)-2-(4-fluorophenyl)cyclopropyl)imidazo[1,2-b]pyridazine-2-carboxylate]
2.65 | O=c1[nH]cc(-c2cc([C@H]3C[C@@H]3c3ccccn3)c3ncc(F)n3n2)c(=O)[nH]1 (racemic) [Example 178, 5-(3-fluoro-8-((1S,2S)-2-(pyridin-2-yl)cyclopropyl)imidazo[1,2-b]pyridazin-6-yl)pyrimidine-2,4(1H,3H)-dione]
16.7 | O=c1[nH]cc(-c2cc([C@H]3C[C@@H]3c3cncnc3)c3ncc(F)n3n2)c(=O)[nH]1 (racemic) [Example 179, 5-(3-fluoro-8-((1S,2S)-2-(pyrimidin-5-yl)cyclopropyl)imidazo[1,2-b]pyridazin-6-yl)pyrimidine-2,4(1H,3H)-dione]
2.2 | O=c1[nH]cc(-c2cc([C@H]3C[C@@H]3c3cccnc3)c3ncc(F)n3n2)c(=O)[nH]1 (racemic) [Example 180, 5-(3-fluoro-8-((1S,2S)-2-(pyridin-3-yl)cyclopropyl)imidazo[1,2-b]pyridazin-6-yl)pyrimidine-2,4(1H,3H)-dione]
2.42 | O=c1[nH]cc(-c2cc([C@H]3C[C@@H]3c3ccncc3)c3ncc(F)n3n2)c(=O)[nH]1 (racemic) [Example 181, 5-(3-fluoro-8-((1S,2S)-2-(pyridin-4-yl)cyclopropyl)imidazo[1,2-b]pyridazin-6-yl)pyrimidine-2,4(1H,3H)-dione]
1.24 | O=c1[nH]cc(-c2cc([C@H]3C[C@@H]3c3ccc(Cl)cc3)c3ncc(F)n3n2)c(=O)[nH]1 (racemic) [Example 182, 5-(8-((1S,2S)-2-(4-chlorophenyl)cyclopropyl)-3-fluoroimidazo[1,2-b]pyridazin-6-yl)pyrimidine-2,4(1H,3H)-dione]
2.52 | O=c1[nH]cc(-c2cc([C@H]3C[C@@H]3c3ccc(C(F)(F)F)cc3)c3ncc(F)n3n2)c(=O)[nH]1 (racemic) [Example 183, 5-(3-fluoro-8-((1S,2S)-2-(4-(trifluoromethyl)phenyl)cyclopropyl)imidazo[1,2-b]pyridazin-6-yl)pyrimidine-2,4(1H,3H)-dione]
2.86 | Cn1cc([C@H]2C[C@@H]2c2cc(-c3c[nH]c(=O)[nH]c3=O)nn3ccnc23)ccc1=O (racemic) [Example 184, 5-(8-((1S,2S)-2-(1-methyl-6-oxo-1,6-dihydropyridin-3-yl)cyclopropyl)imidazo[1,2-b]pyridazin-6-yl)pyrimidine-2,4(1H,3H)-dione]
1.24 | CC1(C)C(=O)N(CC(F)(F)F)c2cc([C@H]3C[C@@H]3c3cc(-c4c[nH]c(=O)[nH]c4=O)nn4c(Cl)cnc34)ccc21 (racemic) [Example 212, 5-[3-chloro-8-[(1S,2S)-2-[3,3-dimethyl-2-oxo-1-(2,2,2-trifluoroethyl)indolin-6-yl]cyclopropyl]imidazo[1,2-b]pyridazin-6-yl]-1H-pyrimidine-2,4-dione]
0.92 | O=c1[nH]cc(-c2cc([C@H]3C[C@@H]3c3ccc4c(F)nn(CC(F)(F)F)c4c3)c3ncc(Cl)n3n2)c(=O)[nH]1 (racemic) [Example 213, 5-[3-chloro-8-[(1S,2S)-2-[3-fluoro-1-(2,2,2-trifluoroethyl)indazol-6-yl]cyclopropyl]imidazo[1,2-b]pyridazin-6-yl]-1H-pyrimidine-2,4-dione]
